System: mouse embryonic stem cells (mESC's)
Test: Mouse embryonic stem cell differentiation assessed by GeneChip array (Affymetrix GeneChip Mouse Exon 1.0ST)
Type: cell-based
Conditions: 0.5 μM, 96 hours, spontaneously differentiating mESC's
Method: Undifferentiated mouse embryonic stem cells (mESC's) were seeded at a density of 1.3×10^6 cells on 6 cm uncoated bacterial grade dishes. Spontaneous differentiation was initiated by removal of LIF from the new incubation medium, which consisted of 2% serum KO DMEM+/−AO-1-530 (0.5 μM). AO-1-530 is the same compound used in Examples 1 and 2. There were three treated and three control replicates.
Cells were incubated on a shaking platform at 37° C. for 24 hours at which time the plating media was removed and fresh medium, or AO-1-530 treated medium added as appropriate. This was repeated at 48 hours and 72 hours.
The partially-differentiated cells or embryoid bodies (EB's) were harvested at 96 hours, washed with PBS, re-suspended in Trizol and stored at −80° C. awaiting RNA extraction. The cells were subsequently thawed and RNA extracted using a standard Trizol isolation procedure with an additional clean-up performed using a Qiagen RNeasy Mini kit and DNase digestion as per the manufacturer's instructions. cRNA was prepared from the tRNA, then hybridised to the Affymetrix GeneChip Mouse Exon 1.0ST array, washed, stained then scanned.
P-value cut-off: 0.05 P-value computation: Asymptotic Multiple testing correction: Benjamini-Hochberg

Compound: CCCCCCCCCCc1ccc2c(=O)c(O)c(-c3cc(O)c(O)c(O)c3)oc2c1 [AO1530]
- Neurod1 and Fgf4 genes relative to the control cells: increase
- remaining 6 genes (Fgf10, Bry, Podxl, Map4k1, Pak1, Eomes) relative to the control cells: decreased
- number of genes with significantly altered (P<0.05) expression compared with the controls (T-test, Benjamini-Hochberg): 315 genes
- [Drug] (normalized) Pak1 ([Control] (normalized) 0.17034023): −0.2141
- [Drug] (normalized) Bry ([Control] (normalized) 0.32084307): −0.4595
- [Drug] (normalized) Podxl ([Control] (normalized) 0.32956442): −0.3278
- [Drug] (normalized) Eomes ([Control] (normalized) 0.44043383): −0.5036
- [Drug] (normalized) Fgf10 ([Control] (normalized) 0.50325745): −0.5713
- [Drug] (normalized) Map4k1 ([Control] (normalized) −0.1732769): 0.1637
- [Drug] (normalized) Neurod1 ([Control] (normalized) −0.46519312): 0.4739
- [Drug] (normalized) Fgf4 ([Control] (normalized) −0.48913416): 0.3787
- [Drug](raw) Fgf10 ([Control](raw) 394.5062): 187.7
- [Drug](raw) Neurod1 ([Control](raw) 420.62076): 806
- [Drug](raw) Map4k1 ([Control](raw) 814.98): 1029.3136
- [Drug](raw) Eomes ([Control](raw) 2057.381): 1071.638
- [Drug](raw) Fgf4 ([Control](raw) 2079.3152): 3787.6875
- [Drug](raw) Pak1 ([Control](raw) 2240.5337): 1717.2704
- [Drug](raw) Podxl ([Control](raw) 3411.1348): 2162.7986
- [Drug](raw) Bry ([Control](raw) 8229.497): 4804.9707

Source: patent US20120094384A1, “USE OF COMPOUNDS FOR DIFFERENTIATION OF CELLS” (priority 2009, published 2012)
